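Each compound was tested at five concentrations against cells in 96-well plates for 48 hours. GI50: concentration for 50% inhibition of growth.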 Active and inactive are the calls of the source. No stated cut-off is given here; in the data, active = GI50 up to about 1.1 µM and inactive = higher.

These results are taken from ChEMBL document CHEMBL1201862, “PubChem BioAssay data set” (2004).

Some test systems named below: OVCAR-4; HT-29; SNB-75; SK-MEL-5; DU-145; MCF7; A498; SK-MEL-2; COLO 205; SNB-19; SK-OV-3; NCI/ADR-RES; NCI-H460; MDA-N; K562; HCC 2998; NCI-H23; SK-MEL-28; SF-268.
Common to all, as to assay: NCI tumour cell line growth inhibition, 48 h

Turning to `CCOC(=O)CCC1(CCC(=O)OCC)CCCCCCCCC(CCC(=O)OCC)(CCC(=O)OCC)C(=O)C1=O`, the GI50 was > 100 µM (inactive) with OVCAR-4; > 100 µM (inactive) in the assay with HT-29; 82.8 µM (inactive) in the assay on SNB-75; > 100 µM (inactive) with SK-MEL-5; > 100 µM (inactive) with DU-145; > 100 µM (inactive) in the assay with MCF7. Further, the GI50 with A498, in the assay on SK-MEL-2, in the assay on COLO 205, with SNB-19, in the assay on SK-OV-3 and in the assay with NCI/ADR-RES was > 100 µM (inactive) throughout. For the same compound, the GI50 in the assay with NCI-H460, in the assay on MDA-N, in the assay with K562, in the assay on HCC 2998, in the assay on NCI-H23 and in the assay on SK-MEL-28 was > 100 µM (inactive) in each case. Moreover, in the assay on SF-268, the GI50 was > 100 µM (inactive).

As to `CC(C)(C)OC(=O)NC1CC=CCC1NC(=O)OC(C)(C)C` (stereo not given), the GI50 is > 100 µM (inactive) in the assay with OVCAR-4; > 100 µM (inactive) in the assay on HT-29; > 100 µM (inactive) in the assay on SNB-75; 97.7 µM (inactive) with SK-MEL-5; > 100 µM (inactive) with DU-145; > 100 µM (inactive) in the assay with MCF7. Moreover, the GI50 with A498, with SK-MEL-2, in the assay with COLO 205, in the assay with SNB-19, in the assay with SK-OV-3 and in the assay with NCI/ADR-RES was > 100 µM (inactive) in each case. The GI50 was > 100 µM (inactive) in the assay with NCI-H460; > 100 µM (inactive) with MDA-N; 97.9 µM (inactive) in the assay with K562; > 100 µM (inactive) in the assay with HCC 2998; > 100 µM (inactive) in the assay on NCI-H23; > 100 µM (inactive) in the assay with SK-MEL-28. Moreover, the GI50 with SF-268 was > 100 µM (inactive).

Consider `O/N=C1\CCc2cc3c(cc21)CCC3`, for which the GI50 is > 100 µM (inactive) with OVCAR-4; > 100 µM (inactive) in the assay with HT-29; 44.3 µM (inactive) in the assay on SNB-75; > 100 µM (inactive) with SK-MEL-5; > 100 µM (inactive) with DU-145; > 100 µM (inactive) with MCF7. Besides, the GI50 in the assay on A498, in the assay with SK-MEL-2, in the assay with COLO 205, with SNB-19, with SK-OV-3 and with NCI/ADR-RES was > 100 µM (inactive) throughout. Further, the GI50 in the assay on NCI-H460, with MDA-N, in the assay with K562, in the assay on HCC 2998, with NCI-H23 and in the assay on SK-MEL-28 was > 100 µM (inactive) in each case. Further, in the assay with SF-268, the GI50 is 97.9 µM (inactive).

As for `C=C(C)CNCC(=C)C.Oc1c(Cl)c(Cl)c(Cl)c(Cl)c1Cl`, the GI50 in the assay on OVCAR-4 is 23.5 µM (inactive); with HT-29, 20.1 µM (inactive); in the assay on SNB-75, 16.6 µM (inactive); in the assay with SK-MEL-5, 16.4 µM (inactive); in the assay on DU-145, 15.2 µM (inactive); in the assay with MCF7, 26.6 µM (inactive). The GI50 was 20.4 µM (inactive) in the assay with A498; 17.7 µM (inactive) in the assay with SK-MEL-2; 22.7 µM (inactive) in the assay on COLO 205; 32.1 µM (inactive) with SNB-19; 43.4 µM (inactive) in the assay with SK-OV-3; 23.8 µM (inactive) in the assay on NCI/ADR-RES. For the same compound, the GI50 with NCI-H460 is > 100 µM (inactive); in the assay with MDA-N it was 18.7 µM (inactive); in the assay with K562, 32.4 µM (inactive); in the assay with HCC 2998, > 100 µM (inactive); in the assay on NCI-H23, 22.3 µM (inactive); with SK-MEL-28 it was 28.2 µM (inactive). Moreover, the GI50 with SF-268 is 33.9 µM (inactive).

As to `Cc1cc(N2CCCC2)c([N+](=O)[O-])cc1[N+](=O)[O-]`, the GI50 with OVCAR-4, in the assay on HT-29, in the assay on SNB-75, in the assay on SK-MEL-5, in the assay with DU-145 and in the assay with MCF7 was > 100 µM (inactive) each time. Moreover, the GI50 in the assay with A498, with SK-MEL-2, in the assay with COLO 205, in the assay with SNB-19, in the assay on SK-OV-3 and with NCI/ADR-RES was > 100 µM (inactive) throughout. In addition, the GI50 in the assay with NCI-H460, in the assay on MDA-N, in the assay on K562, in the assay with HCC 2998, in the assay with NCI-H23 and in the assay on SK-MEL-28 was > 100 µM (inactive) throughout. Besides, the GI50 in the assay with SF-268 was > 100 µM (inactive).

For `[N-]=[N+]=NC1=NNC2(C(=O)N1)c1ccccc1-c1ccccc12`, the GI50 in the assay on OVCAR-4 was > 100 µM (inactive); in the assay on HT-29 it was > 100 µM (inactive); with SNB-75 it was > 100 µM (inactive); with SK-MEL-5 it was > 100 µM (inactive); with DU-145 it was > 100 µM (inactive); with MCF7, 72.1 µM (inactive). In addition, the GI50 in the assay on A498, in the assay on SK-MEL-2, in the assay with COLO 205, in the assay with SNB-19, with SK-OV-3 and with NCI/ADR-RES was > 100 µM (inactive) in each case. Further, the GI50 in the assay on NCI-H460, with MDA-N, in the assay on K562, in the assay on HCC 2998, in the assay on NCI-H23 and with SK-MEL-28 was > 100 µM (inactive) throughout. Besides, the GI50 with SF-268 is > 100 µM (inactive).

With `CC/C(Cl)=N\OC(=O)Nc1ccc(F)cc1F`, the GI50 in the assay on OVCAR-4 is 17.9 µM (inactive); in the assay with HT-29, 21.3 µM (inactive); in the assay on SNB-75, 20.6 µM (inactive); with SK-MEL-5, 6.12 µM (inactive); in the assay on DU-145, 17.6 µM (inactive); in the assay on MCF7, 7.78 µM (inactive). For the same compound, the GI50 in the assay on A498 was 28.3 µM (inactive); with SK-MEL-2, 17.4 µM (inactive); in the assay on COLO 205, 1.91 µM (inactive); in the assay on SNB-19 it was 25.4 µM (inactive); in the assay on SK-OV-3, 19.3 µM (inactive); in the assay with NCI/ADR-RES it was 17.8 µM (inactive). Further, the GI50 was 29.1 µM (inactive) in the assay with NCI-H460; 5.87 µM (inactive) with MDA-N; 0.244 µM (active) in the assay with K562; 19.3 µM (inactive) in the assay on HCC 2998; 20 µM (inactive) in the assay with NCI-H23; 17.7 µM (inactive) in the assay on SK-MEL-28. For the same compound, the GI50 with SF-268 was 24.1 µM (inactive).

On to `COc1cc2c(cc1OC)-c1cc3cc(OC)c(OC)cc3c(=O)n1CC2`, for which the GI50 was 30.3 µM (inactive) in the assay with OVCAR-4; 28.6 µM (inactive) with HT-29; 9.4 µM (inactive) in the assay on SNB-75; 4.41 µM (inactive) in the assay on SK-MEL-5; 4.57 µM (inactive) in the assay with DU-145; 5.89 µM (inactive) in the assay on MCF7. Also, the GI50 in the assay with A498 was 7.59 µM (inactive); in the assay on SK-MEL-2 it was 11.5 µM (inactive); in the assay on COLO 205 it was 26.5 µM (inactive); in the assay on SNB-19, 20.7 µM (inactive); in the assay on SK-OV-3 it was 14.1 µM (inactive); in the assay with NCI/ADR-RES, 21.7 µM (inactive). Further, the GI50 is > 25.6 µM (inactive) in the assay with NCI-H460; 67.9 µM (inactive) with MDA-N; 10.4 µM (inactive) in the assay with K562; 30.7 µM (inactive) in the assay on HCC 2998; 46.5 µM (inactive) in the assay with NCI-H23; > 62.1 µM (inactive) in the assay on SK-MEL-28. Moreover, the GI50 in the assay with SF-268 was 26.5 µM (inactive).

For the compound `CN1CCC(OC(=O)Oc2ccccc2)(c2ccccc2)CC1`, the GI50 is 18.3 µM (inactive) in the assay on OVCAR-4; 4.51 µM (inactive) in the assay with HT-29; 24.4 µM (inactive) with SNB-75; 20 µM (inactive) with SK-MEL-5; 47.1 µM (inactive) with DU-145; 20 µM (inactive) with MCF7. The GI50 is 23.8 µM (inactive) in the assay on A498; 17.9 µM (inactive) in the assay with SK-MEL-2; 12.5 µM (inactive) with COLO 205; 25.4 µM (inactive) in the assay with SNB-19; 24.9 µM (inactive) in the assay with SK-OV-3; 16.6 µM (inactive) in the assay on NCI/ADR-RES. Besides, the GI50 with NCI-H460 was 13.5 µM (inactive); with MDA-N, 17.6 µM (inactive); with K562, 24.7 µM (inactive); with HCC 2998, 19.6 µM (inactive); in the assay with NCI-H23 it was 14.4 µM (inactive); in the assay on SK-MEL-28, 20.6 µM (inactive). Also, in the assay on SF-268, the GI50 was 37.1 µM (inactive).

For the compound `COc1ccc(-n2cnc3c(NCC(=O)O)ncnc32)cc1`, the GI50 with OVCAR-4, in the assay with HT-29, in the assay on SNB-75, in the assay on SK-MEL-5, in the assay on DU-145 and with MCF7 was > 100 µM (inactive) throughout. In addition, the GI50 in the assay on A498, in the assay on SK-MEL-2, in the assay with COLO 205, in the assay on SNB-19, with SK-OV-3 and in the assay with NCI/ADR-RES was > 100 µM (inactive) in each case. In addition, the GI50 in the assay on NCI-H460, with MDA-N, in the assay on K562, in the assay with HCC 2998, with NCI-H23 and in the assay on SK-MEL-28 was > 100 µM (inactive) throughout. Moreover, the GI50 with SF-268 is > 100 µM (inactive).
